Laboratory results: patent US11059832B2, “HPK1 inhibitors and methods of using same” (University Health Network, priority 2015, dated 2021)

Target: T1, human HPK1 (MAP4K1) (Homo sapiens, UniProt Q92918)
T1 construct: human HPK1 (aa 1-346); purchased Invitrogen PV6355
T1 sequence (Q92918 1-346): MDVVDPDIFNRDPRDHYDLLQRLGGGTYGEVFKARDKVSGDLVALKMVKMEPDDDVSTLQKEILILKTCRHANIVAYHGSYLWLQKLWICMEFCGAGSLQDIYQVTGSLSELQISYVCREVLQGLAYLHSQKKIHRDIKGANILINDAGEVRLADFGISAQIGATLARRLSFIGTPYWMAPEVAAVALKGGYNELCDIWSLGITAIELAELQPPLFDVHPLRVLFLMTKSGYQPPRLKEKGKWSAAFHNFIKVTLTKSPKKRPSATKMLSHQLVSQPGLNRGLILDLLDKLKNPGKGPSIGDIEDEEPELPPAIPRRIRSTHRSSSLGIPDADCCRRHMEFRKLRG
Assay: HPK1 inhibition assay (indirect ELISA)
Format: biochemical
Conditions: GST-HPK1 0.6 nM, 12 μM ATP; read-out: IC50 Range HPK1
How it was run: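 GST-tagged human HPK1 (aa 1-346, 0.6 nM) phosphorylated MBP-coated wells with 12 μM ATP in MOPS pH 7.2/Mg2+ buffer for 30 min after 15-min compound preincubation; phospho-Thr detected by antibody ELISA with TMB, 450 nm. Tested at 10 μM or 10-point titration (typically 50-0.1 μM); IC50 by 4-parameter logistic fit.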

Question: `CN1CCN(c2ccc3nc(-c4c(N)c5ccsc5[nH]c4=O)[nH]c3c2)CC1` [Example A1, 4-amino-5-(6-(4-methylpiperazin-1-yl)-1H-benzo[d]imidazol-2-yl)thieno[2,3-b]pyridin-6(7H)-one] was tested. Which IC50 did it give?
Answer: ≤ 0.05 µM
